# Patent US20070243147A1, “Skin and/or Hair Composition Containing Compounds for Increasing The Tanning of Skin” (BEIERSDORF AG, priority 2004, published 2007)
# Test system: primary normal human melanocytes
# Assay: melanogenesis assay (14C-tyrosine incorporation) after 3 days of incubation
# Type: cell-based
# Details: for melanogenesis rate (measured as 14C-tyrosine incorporation) based on the untreated control (=100%): 3 days incubation, primary normal human melanocytes, mean (X transverse), n=4
# Protocol: A melanogenesis assay was carried out after 3 days of incubation of primary normal human melanocytes with test substance compared to control. The figures listed in the table give the melanogenesis rates (measured as ^14C-tyrosine incorporation) based on the untreated control (=100%). It results from this that the melanogenesis, i.e., the process of melanine synthesis, rises to 156% or 150% when the melanocytes are cultivated in the presence of the compound (I) (2E,3S,4R)-2,3,4-trimethyl-3-[(3E,7E,11E)-3,8,12,16-tetramethylheptadeca-3,7,11,15-tetraen-1-yl]cyclohexanone (n=4).
# Furthermore, a melanogenesis assay was carried out after 3 days of incubation of primary normal human melanocytes with test substance compared to control. The figures listed in the table give the melanogenesis rates (measured as ^14C-tyrosine incorporation) based on the untreated control (=100%). It results from this that the melanogenesis, i.e., the process of melanine synthesis, rises to 135% or 113% when the melanocytes are cultivated in the presence of the preferred compound (III) (4E,8E,12E,16E)-3,7,11,15-tetrahydroxy-18-(hydroxymethyl)-2,4,6,10,14,16,20-heptamethyldocosa-4,8,12,16-teraenoic acid (n=4).
SMILES,melanogenesis rate (measured as 14C-tyrosine incorporation) based on the untreated control (=100%) (0.1 μg/ml test substance) [%],melanogenesis rate (measured as 14C-tyrosine incorporation) based on the untreated control (=100%) (1 μg/ml test substance) [%],increase of the synthesis of melanin (result in words) (tests to increase the synthesis of melanin)
"CCC(C)CC(/C=C(\C)C(O)C(C)/C=C/C(O)C(C)/C=C/C(O)C(C)/C=C(\C)C(O)C(C)C(=O)O)CO (centres unmarked) [compound (III), (4E,8E,12E, 16E)-3,7,11,15-tetrahydroxy-18-(hydroxymethyl)-2,4,6,10,14,16,20-heptamethyldocosa-4,8,12,16-tetraenoic acid]",153,172,particularly advantageous
"CC(C)=CCC/C(C)=C/CC/C(C)=C/CC/C=C(\C)CC[C@@]1(C)[C@H](C)CCC(=O)[C@@H]1C [compound (I), (2R,3S,4R)-2,3,4-trimethyl-3-[(3E,7E,11E)-3,8,12,16-tetramethylheptadeca-3,7,11,15-tetraen-1-yl]cylcohexanone]",150,156,
